Data on three molecules can be found in publication PMC7332792 (Acta Pharmaceutica Sinica. B, 2020).

A word on the Kd: it is the constant that tells how readily two partners part at equilibrium. Read a high Kd as a looser complex.

The target in one data set is T1, human LAG-3 protein (human, UniProt P18627, labeled with Red-NHS647 dye (in the MST assay)).
T1 sequence: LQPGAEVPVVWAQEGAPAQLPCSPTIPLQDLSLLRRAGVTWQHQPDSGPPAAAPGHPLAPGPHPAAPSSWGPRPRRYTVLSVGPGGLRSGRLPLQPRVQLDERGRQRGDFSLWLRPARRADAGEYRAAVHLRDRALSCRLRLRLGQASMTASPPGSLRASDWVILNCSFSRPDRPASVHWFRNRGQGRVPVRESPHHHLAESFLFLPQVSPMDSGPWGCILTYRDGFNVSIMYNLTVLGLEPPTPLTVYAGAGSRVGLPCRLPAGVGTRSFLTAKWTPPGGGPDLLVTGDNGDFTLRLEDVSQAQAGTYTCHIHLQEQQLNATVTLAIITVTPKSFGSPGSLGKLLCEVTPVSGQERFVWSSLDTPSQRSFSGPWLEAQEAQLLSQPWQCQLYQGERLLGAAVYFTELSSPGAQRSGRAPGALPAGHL
The experiment in a line: MST.

Bridge positions count the residues as written; N and C are the ends. Ends that are not written are not given here.

As to `CSCC[C@@H]1NC(=O)[C@@H]2CCCN2C(=O)[C@H](C(C)C)NC(=O)[C@@H](N)CSSC[C@@H](C(=O)O)NC(=O)[C@H](C)NC(=O)[C@H](CCCNC(=N)N)NC(=O)[C@H](Cc2ccc(O)cc2)NC(=O)[C@H]([C@@H](C)O)NC1=O` [C25], the “immune response (immunogenicity) in mice” value (mice with or without CT26 xenograft) is reported as “did not cause significant immune response in mice”. Further, where the note is “naïve mice and CT26 tumor bearing mice after 14 days of C25 treatment, ELISA, versus control, n = 5”, the “IgG levels in the blood” value is given as “not significantly different from those in the control group”.
Regarding CNWMINKEC (disulfide 1-9) [cyclic peptide C19], the Kd in the data set with human LAG-3 protein was determined as 5.05 µM.
CNMHTPMVC (disulfide 1-9) [cyclic peptide C17] yielded a Kd with human LAG-3 protein of 1.83 µM.
